Laboratory results from patent US20240228458A1, “PYRIMIDINE DERIVATIVE HAVING PROTEIN KINASE INHIBITORY ACTIVITY, AND THERAPEUTIC PHARMACEUTICAL COMPOSITION COMPRISING SAME” (THERAPEX CO., LTD., priority 2021, published 2024).

Columns and labels:
Format in all cases: cell-based
[1] = system: Ba/F3 cells expressing del19/T790M (EGFR-DT); test: Growth inhibition (GI50) of Ba/F3 cells expressing del19/T790M (EGFR-DT), Celltiter glo; details: Mus musculus, BaF3, 72 h
Outline: (§1)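 Viable-cell luminescence (CellTiter-Glo) after 72 h compound exposure at 37 °C, 5% CO2 gave GI50 (μM, 50% growth inhibition). Compounds were 4-fold serial dilutions, 10 points, from a 2 mM stock, 0.5% DMSO, added 4 h after plating EGFR-variant Ba/F3 cells at 100,000 cells/ml.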

[2] = system: Ba/F3 cells expressing L858R/T790M (EGFR-LT); test: Growth inhibition (GI50) of Ba/F3 cells expressing L858R/T790M (EGFR-LT), Celltiter glo; details: Mus musculus, BaF3, 72 h
Outline: as §1

[3] = system: parental Ba/F3 cell line; test: Growth inhibition (GI50) of the parental Ba/F3 cell line (not introduced with EGFR variants), Celltiter glo; details: Mus musculus, BaF3, 72 h, parental Ba/F3 cells
Outline: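 Viable cell count by CellTiter-Glo after 72 h at 37 °C gave GI50 values (μM, 50% growth inhibition). Cells lacking EGFR variants were seeded at 100,000 cells/ml and dosed 4 h later with 4-fold serial dilutions from a 2 mM stock, 0.5% DMSO.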

[4] = system: Ba/F3 cells expressing del19/T790M/C797S (EGFR-DTC); test: Growth inhibition (GI50) of Ba/F3 cells expressing del19/T790M/C797S (EGFR-DTC), Celltiter glo; details: Mus musculus, BaF3, 72 h
Outline: as §1

[5] = system: Ba/F3 cells expressing L858R/T790M/C797S (EGFR-LTC); test: Growth inhibition (GI50) of Ba/F3 cells expressing L858R/T790M/C797S (EGFR-LTC), Celltiter glo; details: Mus musculus, BaF3, 72 h
Outline: as §1

[6] = system: Ba/F3 cells expressing EGFR-wt; test: Growth inhibition (GI50) of Ba/F3 cells expressing EGFR-wt, Celltiter glo; details: Mus musculus, BaF3, 72 h
Outline: as §1

SMILES	GI50 [1]	GI50 [2]	GI50 [3]	GI50 [4]	GI50 [5]	GI50 [6]
COc1cc(N2CCC(N3CCN(C)CC3)CC2)c(Cl)cc1Nc1ncc(Cl)c(Nc2cc3c(cc2NS(C)(=O)=O)CCO3)n1 [Example 168, N-(6-((5-chloro-2-((5-chloro-2-methoxy-4-(4-(4-methylpiperazin-1-yl)piperidin-1-yl)phenyl)amino)pyrimidin-4-yl)amino)-2,3-dihydrobenzofuran-5-yl)methanesulfonamide]	1 to 25 nM	1 to 25 nM	2000 to 10000 nM	1 to 25 nM	1 to 25 nM	25 to 100 nM
COc1cc(N2CCC(N3CCN(C)CC3)CC2)c(C)cc1Nc1ncc(Br)c(Nc2cc3c(cc2NS(C)(=O)=O)CCO3)n1 [Example 169, N-(6-((5-bromo-2-((2-methoxy-5-methyl-4-(4-(4-methylpiperazin-1-yl)piperidin-1-yl)phenyl)amino)pyrimidin-4-yl)amino)-2,3-dihydrobenzofuran-5-yl)methanesulfonamide]	1 to 25 nM	1 to 25 nM	500 to 2000 nM	1 to 25 nM	1 to 25 nM	100 to 500 nM
COc1cc(N2CCC(N3CCN(C)CC3)CC2)c(Cl)cc1Nc1ncc(Cl)c(Nc2cc(Cl)ccc2N(C)S(C)(=O)=O)n1 [Example 170, N-(4-chloro-2-((5-chloro-2-((5-chloro-2-methoxy-4-(4-(4-methylpiperazin-1-yl)piperidin-1-yl)phenyl)amino)pyrimidin-4-yl)amino)phenyl)-N-methylmethanesulfonamide]	1 to 25 nM	1 to 25 nM	100 to 500 nM	1 to 25 nM	1 to 25 nM	25 to 100 nM
Cc1cc(Nc2ncc(Cl)c(Nc3cc4c(cc3NS(C)(=O)=O)CCO4)n2)c(Cl)cc1N1CCC(N2CCCN(C)CC2)CC1 [Example 172, N-(6-((5-chloro-2-((2-chloro-5-methyl-4-(4-(4-methyl-1,4-diazepan-1-yl)piperidin-1-yl)phenyl)amino)pyrimidin-4-yl)amino)-2,3-dihydrobenzofuran-5-yl)methanesulfonamide]	25 to 100 nM	1 to 25 nM	100 to 500 nM	1 to 25 nM	1 to 25 nM	100 to 500 nM
Cc1cc(Nc2ncc(Cl)c(Nc3cc4c(cc3NS(C)(=O)=O)CCO4)n2)c(Cl)cc1N1CCC(N2CCN(C)CC2)CC1 [Example 173, N-(6-((5-chloro-2-((2-chloro-5-methyl-4-(4-(4-methylpiperazin-1-yl)piperidin-1-yl)phenyl)amino)pyrimidin-4-yl)amino)-2,3-dihydrobenzofuran-5-yl)methanesulfonamide]	1 to 25 nM	1 to 25 nM	100 to 500 nM	25 to 100 nM	25 to 100 nM	100 to 500 nM
COc1cc(N2CCC(N3CCCN(C)CC3)CC2)c(Cl)cc1Nc1ncc(Cl)c(Nc2cc3c(cc2NS(C)(=O)=O)CCO3)n1 [Example 174, N-(6-((5-chloro-2-((5-chloro-2-methoxy-4-(4-(4-methyl-1,4-diazepan-1-yl)piperidin-1-yl)phenyl)amino)pyrimidin-4-yl)amino)-2,3-dihydrobenzofuran-5-yl)methanesulfonamide]	1 to 25 nM	1 to 25 nM	500 to 2000 nM	1 to 25 nM	25 to 100 nM	100 to 500 nM
Cc1cc(Nc2ncc(Br)c(Nc3cc4c(cc3NS(C)(=O)=O)CCO4)n2)c(Cl)cc1N1CCC(N2CCN(C)CC2)CC1 [Example 175, N-(6-((5-bromo-2-((2-chloro-5-methyl-4-(4-(4-methylpiperazin-1-yl)piperidin-1-yl)phenyl)amino)pyrimidin-4-yl)amino)-2,3-dihydrobenzofuran-5-yl)methanesulfonamide]	100 to 500 nM	100 to 500 nM	> 10000 nM	25 to 100 nM	25 to 100 nM	500 to 2000 nM
COc1cc(N2CCC(N3CCN(C)CC3)CC2)c(C)cc1Nc1ncc(Cl)c(Nc2cc(Cl)c(F)cc2NS(C)(=O)=O)n1 [Example 176, N-(4-chloro-2-((5-chloro-2-((2-methoxy-5-methyl-4-(4-(4-methylpiperazin-1-yl)piperidin-1-yl)phenyl)amino)pyrimidin-4-yl)amino)-5-fluorophenyl)methanesulfonamide]	25 to 100 nM	25 to 100 nM	500 to 2000 nM	1 to 25 nM	1 to 25 nM	100 to 500 nM
Cc1cc(Nc2ncc(Br)c(Nc3cc(Cl)c(F)cc3NS(C)(=O)=O)n2)c(Cl)cc1N1CCC(N2CCN(C)CC2)CC1 [Example 177, N-(2-((5-bromo-2-((2-chloro-5-methyl-4-(4-(4-methylpiperazin-1-yl)piperidin-1-yl)phenyl)amino)pyrimidin-4-yl)amino)-4-chloro-5-fluorophenyl)methanesulfonamide]	100 to 500 nM	100 to 500 nM	2000 to 10000 nM	25 to 100 nM	1 to 25 nM	2000 to 10000 nM
COc1cc(N2CCC(N3CCN(C)CC3)CC2)c(Cl)cc1Nc1ncc(Br)c(Nc2cc(Cl)c(F)cc2NS(C)(=O)=O)n1 [Example 178, N-(2-((5-bromo-2-((5-chloro-2-methoxy-4-(4-(4-methylpiperazin-1-yl)piperidin-1-yl)phenyl)amino)pyrimidin-4-yl)amino)-4-chloro-5-fluorophenyl)methanesulfonamide]	25 to 100 nM	25 to 100 nM	2000 to 10000 nM	1 to 25 nM	25 to 100 nM	500 to 2000 nM
Cc1cc(Nc2ncc(Cl)c(Nc3cc(Cl)ccc3N(C)S(C)(=O)=O)n2)c(Cl)cc1N1CCC(N2CCC(N(C)C)C2)CC1 (stereo not drawn) [Example 179, N-(4-chloro-2-((5-chloro-2-((2-chloro-4-(4-(3-(dimethylamino)pyrrolidin-1-yl)piperidin-1-yl)-5-methylphenyl)amino)pyrimidin-4-yl)amino)phenyl)-N-methylmethanesulfonamide]	100 to 500 nM	25 to 100 nM	500 to 2000 nM	100 to 500 nM	25 to 100 nM	100 to 500 nM
Cc1cc(Nc2ncc(Cl)c(Nc3cc(Cl)ccc3N(C)S(C)(=O)=O)n2)c(Cl)cc1N1CCC(N2CCCN(C)CC2)CC1 [Example 180, N-(4-chloro-2-((5-chloro-2-((2-chloro-5-methyl-4-(4-(4-methyl-1,4-diazepan-1-yl)piperidin-1-yl)phenyl)amino)pyrimidin-4-yl)amino)phenyl)-N-methylmethanesulfonamide]	25 to 100 nM	25 to 100 nM	2000 to 10000 nM	25 to 100 nM	25 to 100 nM	500 to 2000 nM
COc1cc(N2CCC(N3CCN(C)CC3)CC2)c(Cl)cc1Nc1ncc(Cl)c(Nc2cc(Cl)c(F)cc2NS(C)(=O)=O)n1 [Example 181, N-(4-chloro-2-((5-chloro-2-((5-chloro-2-methoxy-4-(4-(4-methylpiperazin-1-yl)piperidin-1-yl)phenyl)amino)pyrimidin-4-yl)amino)-5-fluorophenyl)methanesulfonamide]	25 to 100 nM	25 to 100 nM	2000 to 10000 nM	100 to 500 nM	25 to 100 nM	500 to 2000 nM
Cc1cc(Nc2ncc(Cl)c(Nc3cc(Cl)c(F)cc3NS(C)(=O)=O)n2)c(Cl)cc1N1CCC(N2CCN(C)CC2)CC1 [Example 182, N-(4-chloro-2-((5-chloro-2-((2-chloro-5-methyl-4-(4-(4-methylpiperazin-1-yl)piperidin-1-yl)phenyl)amino)pyrimidin-4-yl)amino)-5-fluorophenyl)methanesulfonamide]	25 to 100 nM	25 to 100 nM	> 10000 nM	25 to 100 nM	25 to 100 nM	2000 to 10000 nM
COc1cc(N2CCC(N3CCN(C)CC3)CC2)c(Cl)cc1Nc1ncc(Br)c(Nc2cc3c(cc2NS(C)(=O)=O)CCO3)n1 [Example 183, N-(6-((5-bromo-2-((5-chloro-2-methoxy-4-(4-(4-methylpiperazin-1-yl)piperidin-1-yl)phenyl)amino)pyrimidin-4-yl)amino)-2,3-dihydrobenzofuran-5-yl)methanesulfonamide]	1 to 25 nM	1 to 25 nM	25 to 100 nM	1 to 25 nM	1 to 25 nM	1 to 25 nM
CCc1cc(Nc2ncc(Br)c(Nc3cc4c(cc3NS(C)(=O)=O)CCO4)n2)c(OC)cc1N1CCC(N2CCN(C)CC2)CC1 [Example 184, N-(6-((5-bromo-2-((5-ethyl-2-methoxy-4-(4-(4-methylpiperazin-1-yl)piperidin-1-yl)phenyl)amino)pyrimidin-4-yl)amino)-2,3-dihydrobenzofuran-5-yl)methanesulfonamide]	1 to 25 nM	1 to 25 nM	500 to 2000 nM	100 to 500 nM	1 to 25 nM	25 to 100 nM
COc1cc(N2CCC(N3CCCN(C)CC3)CC2)c(C)cc1Nc1ncc(Br)c(Nc2cc3c(cc2NS(C)(=O)=O)CCO3)n1 [Example 188, N-(6-((5-bromo-2-((2-methoxy-5-methyl-4-(4-(4-methyl-1,4-diazepan-1-yl)piperidin-1-yl)phenyl)amino)pyrimidin-4-yl)amino)-2,3-dihydrobenzofuran-5-yl)methanesulfonamide]	25 to 100 nM	25 to 100 nM	500 to 2000 nM	1 to 25 nM	1 to 25 nM	100 to 500 nM
